Results reported in ChEMBL document CHEMBL5528056, “BAY-9835: Discovery of the First Orally Bioavailable ADAMTS7 Inhibitor” (J Med Chem, 2024).
Several values for one entry are separate records, joined by “and”; a condition that tells them apart may be missing. Equal values may be shown once.

What was measured:
[1] = molecular target: A disintegrin and metalloproteinase with thrombospondin motifs 7 (Homo sapiens, UniProt Q9UKP4); test: Inhibition of recombinant ADAMTS7 (unknown origin) using HiLyteFluor-488 DELSSMVLELRGLRT-K(QXL520)-E-NH2 as substrate incubated for 120 mins by FRET assay
A disintegrin and metalloproteinase with thrombospondin motifs 7, sequence (Q9UKP4 whole entry): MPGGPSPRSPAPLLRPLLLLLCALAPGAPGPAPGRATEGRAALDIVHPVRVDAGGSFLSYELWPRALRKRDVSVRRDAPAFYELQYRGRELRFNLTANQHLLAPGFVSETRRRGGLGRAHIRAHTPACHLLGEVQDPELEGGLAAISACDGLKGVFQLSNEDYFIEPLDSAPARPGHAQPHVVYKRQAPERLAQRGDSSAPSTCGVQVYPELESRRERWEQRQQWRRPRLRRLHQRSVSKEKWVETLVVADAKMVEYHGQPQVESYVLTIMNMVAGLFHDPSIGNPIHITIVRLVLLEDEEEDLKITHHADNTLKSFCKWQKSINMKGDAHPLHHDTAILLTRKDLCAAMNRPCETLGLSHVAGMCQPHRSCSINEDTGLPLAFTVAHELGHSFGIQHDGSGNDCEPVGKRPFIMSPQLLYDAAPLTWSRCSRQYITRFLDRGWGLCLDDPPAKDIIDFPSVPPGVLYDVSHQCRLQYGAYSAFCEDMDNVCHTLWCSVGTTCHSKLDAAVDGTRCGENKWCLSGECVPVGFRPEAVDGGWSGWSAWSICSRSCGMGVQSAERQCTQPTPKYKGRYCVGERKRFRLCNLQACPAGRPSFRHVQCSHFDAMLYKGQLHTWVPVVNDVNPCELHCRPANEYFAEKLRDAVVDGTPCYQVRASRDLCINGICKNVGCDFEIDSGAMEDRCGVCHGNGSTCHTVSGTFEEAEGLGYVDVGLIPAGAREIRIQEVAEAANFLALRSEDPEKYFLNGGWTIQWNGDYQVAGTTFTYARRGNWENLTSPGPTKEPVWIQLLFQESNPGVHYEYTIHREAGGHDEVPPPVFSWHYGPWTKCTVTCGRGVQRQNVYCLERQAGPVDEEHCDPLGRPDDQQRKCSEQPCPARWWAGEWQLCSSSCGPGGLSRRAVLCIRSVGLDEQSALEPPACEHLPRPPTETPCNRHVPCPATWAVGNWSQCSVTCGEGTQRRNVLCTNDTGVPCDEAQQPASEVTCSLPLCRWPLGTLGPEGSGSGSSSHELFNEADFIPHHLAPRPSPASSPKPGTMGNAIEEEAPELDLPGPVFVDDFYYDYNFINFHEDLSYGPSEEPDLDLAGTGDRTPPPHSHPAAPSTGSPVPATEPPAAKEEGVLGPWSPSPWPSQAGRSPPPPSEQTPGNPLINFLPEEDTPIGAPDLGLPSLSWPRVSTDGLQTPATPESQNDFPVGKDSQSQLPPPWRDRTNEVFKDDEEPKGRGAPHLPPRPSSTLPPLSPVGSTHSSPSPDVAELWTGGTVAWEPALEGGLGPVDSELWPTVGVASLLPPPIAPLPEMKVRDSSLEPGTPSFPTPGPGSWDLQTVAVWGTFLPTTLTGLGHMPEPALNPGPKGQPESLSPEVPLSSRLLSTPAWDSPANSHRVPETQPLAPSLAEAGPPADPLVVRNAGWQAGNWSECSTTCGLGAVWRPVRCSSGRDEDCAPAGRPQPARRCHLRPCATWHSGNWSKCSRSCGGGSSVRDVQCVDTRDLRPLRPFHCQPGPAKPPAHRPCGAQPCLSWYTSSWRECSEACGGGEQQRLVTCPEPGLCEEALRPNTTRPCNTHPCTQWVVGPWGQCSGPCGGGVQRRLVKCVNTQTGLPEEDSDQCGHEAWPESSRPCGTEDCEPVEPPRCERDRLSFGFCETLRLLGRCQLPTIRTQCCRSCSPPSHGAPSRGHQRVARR

[2] = Selectivity ratio of IC50 for ADAMTS4 (unknown origin) to IC50 for ADAMTS7 (unknown origin)
[3] = Selectivity ratio of IC50 for ADAMTS5 (unknown origin) to IC50 for ADAMTS7 (unknown origin)
[4] = Selectivity ratio of IC50 for ADAMTS12 (unknown origin) to IC50 for ADAMTS7 (unknown origin)
[5] = Selectivity ratio of IC50 for ADAM17 (unknown origin) to IC50 for ADAMTS7 (unknown origin)
[6] = Selectivity ratio of IC50 for MMP12 (unknown origin) to IC50 for ADAMTS7 (unknown origin)
[7] = Selectivity ratio of IC50 for MMP15 (unknown origin) to IC50 for ADAMTS7 (unknown origin)
[8] = Selectivity ratio of IC50 for MMP2 (unknown origin) to IC50 for ADAMTS7 (unknown origin)
Cytochrome P450 3A4 = Cytochrome P450 3A4 (Homo sapiens, UniProt P08684); test: Induction of CYP3A4 in human hepatocytes assessed as threshold concentration incubated for 48 hrs by qPCR analysis; assay type: ADME, cell-based, Hepatocyte
Cytochrome P450 3A4, sequence (P08684 whole entry): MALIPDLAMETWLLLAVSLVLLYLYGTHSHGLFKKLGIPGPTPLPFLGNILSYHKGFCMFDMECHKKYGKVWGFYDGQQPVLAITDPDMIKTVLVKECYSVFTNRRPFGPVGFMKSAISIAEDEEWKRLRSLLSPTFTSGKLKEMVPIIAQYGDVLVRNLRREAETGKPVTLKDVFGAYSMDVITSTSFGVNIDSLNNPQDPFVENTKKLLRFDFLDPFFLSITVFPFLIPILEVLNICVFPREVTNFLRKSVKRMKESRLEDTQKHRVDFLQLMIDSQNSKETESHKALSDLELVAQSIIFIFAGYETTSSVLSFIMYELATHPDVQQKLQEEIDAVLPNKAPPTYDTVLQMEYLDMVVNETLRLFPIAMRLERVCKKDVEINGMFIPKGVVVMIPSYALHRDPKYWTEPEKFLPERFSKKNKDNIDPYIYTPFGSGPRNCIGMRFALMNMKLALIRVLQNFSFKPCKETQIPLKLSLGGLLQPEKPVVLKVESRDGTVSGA

[9] = Clearance in iv-dosed Wistar rat measured after 24 hrs by HPLC-MS/MS analysis; assay type: ADME; conditions: in vivo
[10] = AUC (infinity) in iv-dosed Wistar rat by HPLC-MS/MS analysis; assay type: ADME; conditions: in vivo
[11] = Oral bioavailability iv-dosed Wistar rat measured after 24 hrs by HPLC-MS/MS analysis; assay type: ADME, organism-based; conditions: in vivo
[12] = Unbound plasma protein binding in iv-dosed Wistar rat measured after 24 hrs by HPLC-MS/MS analysis; assay type: ADME, cell-free

IC50 [1] [nM]	Ratio IC50 [6]	SMILES	also measured
2300		Cc1ccc(-c2cccc(C(=O)NC[C@@]3(C4CC4)NC(=O)NC3=O)c2)cc1	
79		Cn1nccc1[C@]1(CNC(=O)c2c(F)cccc2-c2ccc(C(F)(F)F)cc2)NC(=O)NC1=O	
	1450	Cn1nc(-c2ccccc2)cc1C1(CNC(=O)c2ccc(F)c(F)c2-c2ccc(C(F)(F)F)cc2)NC(=O)NC1=O (centres undefined)	Ratio IC50 [2]: > 20800; Ratio IC50 [3]: 12700; Ratio IC50 [4]: 26; Ratio IC50 [5]: 863; Ratio IC50 [7]: 41700
		Cn1nccc1[C@]1(CNC(=O)c2ccccc2-c2ccc(C(F)(F)F)cc2)NC(=O)NC1=O	Ratio IC50 [2]: 1440; Ratio IC50 [3]: 3220; Ratio IC50 [4]: 1; Ratio IC50 [5]: 303; Ratio IC50 [8]: 8320; Ratio IC50 [7]: 6390; Activity (Cytochrome P450 3A4): 16.6 µM
3		Cn1nccc1[C@]1(CNC(=O)c2ccc(Cl)c(F)c2-c2ccc(C(F)(F)F)cc2)NC(=O)NC1=O	
	18	Cc1c(C2(CNC(=O)c3ccccc3-c3ccc(C(F)(F)F)cc3)NC(=O)NC2=O)cnn1C (centres undefined)	
15	36	Cc1nc(C2(CNC(=O)c3ccccc3-c3ccc(C(F)(F)F)cc3)NC(=O)NC2=O)c(C)s1 (centres undefined)	
	0.4	O=C1NC(=O)[C@](CNC(=O)c2cnn(-c3ccccc3F)n2)(C2CC2)N1	
	1.1	O=C1NC(=O)[C@](CNC(=O)c2cnn(-c3cccc(F)c3)n2)(C2CC2)N1	
	0.2	O=C1NC(=O)[C@](CNC(=O)c2cnn(-c3cnsc3)n2)(C2CC2)N1	
	12 and 12.4	Cc1ccc(-c2ccccc2C(=O)NC[C@@]2(C3CC3)NC(=O)NC2=O)cc1	Ratio IC50 [2]: 115; Ratio IC50 [3]: 213; Ratio IC50 [5]: 826; Ratio IC50 [8]: 759; Ratio IC50 [7]: 872
	0.1	Cc1ccc(-n2ncc(C(=O)NC[C@@]3(C4CC4)NC(=O)NC3=O)n2)cc1	
		O=C1NC(=O)[C@](CNC(=O)c2cnn(-c3ccc(F)cc3)n2)(C2CC2)N1	Ratio IC50 [2]: > 20800; Ratio IC50 [3]: 12700; Ratio IC50 [4]: 26; Ratio IC50 [5]: 863; Ratio IC50 [7]: 41700
	11	O=C1NC(=O)[C@](CNC(=O)c2ccccc2-c2ccc(C(F)(F)F)cc2)(C2CC2)N1	CL [9]: 1.7 mL/min/kg
9		Cc1sc(-c2cccnc2)nc1C1(CNC(=O)c2ccc(F)c(F)c2-c2ccc(C(F)(F)F)cc2)NC(=O)NC1=O (centres undefined)	Ratio IC50 [4]: 14
280	7.4	O=C1NC(=O)[C@](CNC(=O)c2cnn(Cc3ccc(Cl)cc3)c2)(C2CC2)N1	
19		Cn1nccc1[C@]1(CNC(=O)c2cc(F)ccc2-c2ccc(C(F)(F)F)cc2)NC(=O)NC1=O	CL [9]: 10 mL/min/kg
	0.1	O=C1NC(=O)[C@](CNC(=O)c2cnn(-c3cccc(Cl)c3)n2)(C2CC2)N1	
	67	O=C1NC(=O)C(CNC(=O)c2ccccc2-c2ccc(C(F)(F)F)cc2)(c2cscn2)N1 (centres undefined)	CL [9]: 23.3 mL/min/kg

IC50 [1] [nM]	Ratio IC50 [6]	SMILES	also measured
3	450	Cn1ccnc1C1(CNC(=O)c2ccccc2-c2ccc(C(F)(F)F)cc2)NC(=O)NC1=O (single isomer, unassigned)	AUC [10]: 0.6 kg·h/L; Activity (Cytochrome P450 3A4): 0.6 µM
29		COc1cccc(C(=O)NC[C@@]2(c3ccnn3C)NC(=O)NC2=O)c1-c1ccc(C(F)(F)F)cc1	
	29	O=C1NC(=O)C(CNC(=O)c2ccccc2-c2ccc(C(F)(F)F)cc2)(c2ccnn2CC(F)(F)F)N1 (centres undefined)	
8		Cc1cn(-c2ccccc2)nc1C1(CNC(=O)c2ccc(F)c(F)c2-c2ccc(C(F)(F)F)cc2)NC(=O)NC1=O (centres undefined)	Ratio IC50 [4]: 14
19		Cn1nccc1[C@]1(CNC(=O)c2ccc(F)cc2-c2ccc(C(F)(F)F)cc2)NC(=O)NC1=O	CL [9]: 15 mL/min/kg
16		Cn1nccc1[C@]1(CNC(=O)c2cccc(Cl)c2-c2ccc(C(F)(F)F)cc2)NC(=O)NC1=O	
5		Cn1nccc1[C@]1(CNC(=O)c2cccc(F)c2-c2ccc(C(F)(F)F)cc2)NC(=O)NC1=O	CL [9]: 12 mL/min/kg
930	33.5	Cc1nc(Cn2ncc(C(=O)NC[C@@]3(C4CC4)NC(=O)NC3=O)n2)cs1	
	31	O=C1NC(=O)C(CNC(=O)c2ccccc2-c2ccc(C(F)(F)F)cc2)(c2ncsc2C(F)(F)F)N1 (centres undefined)	
580	4.7 10^-4No_unit	Cc1ccc(-c2ccc(C(=O)NC[C@@]3(C4CC4)NC(=O)NC3=O)cc2)cc1	
	0.03	O=C1NC(=O)[C@](CNC(=O)c2cnn(-c3ccccc3)c2)(C2CC2)N1	
	96	CCn1nccc1C1(CNC(=O)c2ccccc2-c2ccc(C(F)(F)F)cc2)NC(=O)NC1=O (centres undefined)	CL [9]: 17 mL/min/kg
850	29.4	Cn1cc(Cn2ncc(C(=O)NC[C@@]3(C4CC4)NC(=O)NC3=O)n2)cn1	
910	4.6	O=C1NC(=O)[C@](CNC(=O)c2cnn(Cc3nccs3)n2)(C2CC2)N1	
	0.8	O=C1NC(=O)[C@](CNC(=O)c2cnn(-c3ccc(Cl)cc3)n2)(C2CC2)N1	
115	0.6	O=C1NC(=O)[C@](CNC(=O)c2cnn(-c3ccc(F)cn3)n2)(C2CC2)N1	
47		Cc1sc(-c2ccccc2)nc1C1(CNC(=O)c2ccc(F)c(F)c2-c2ccc(C(F)(F)F)cc2)NC(=O)NC1=O (centres undefined)	Ratio IC50 [4]: 10
6	188	Cc1scnc1C1(CNC(=O)c2ccccc2-c2ccc(C(F)(F)F)cc2)NC(=O)NC1=O (centres undefined)	CL [9]: 20 mL/min/kg
10		Cn1nccc1[C@]1(CNC(=O)c2ccc(C(F)(F)F)c(F)c2-c2ccc(C(F)(F)F)cc2)NC(=O)NC1=O	

SMILES	IC50 [1] [nM]	Ratio IC50 [6]	also measured
O=C1NC(=O)[C@](CNC(=O)c2cnn(-c3ccccc3)n2)(C2CC2)N1	61		Ratio IC50 [4]: 0.2; CL [9]: 12 mL/min/kg; F [11]: 74%; Fu [12]: 15%
